Measured values reported in publication PMC10318527, “Utilization of dietary mixed-linkage β-glucans by the Firmicute Blautia producta” (The Journal of Biological Chemistry, 2023).
Where “and” joins values, the source holds several entries; their conditions need not be identical. Equal entries are not always repeated. Where two headings read alike, the source gives them in different places.

What was measured:
[1] = tested on: BpGH16MLG; assay: Initial screening of BpGH16MLG against substrates (TLC); assay type: biochemical, Blautia producta ATCC 27340; settings: pH 5.7, 37 °C, 2 h
Protocol: After the appropriate incubation time, the reaction was terminated by boiling (5 min), and generated oligosaccharides were analyzed by thin layer chromatography (TLC). Typically, 1 μl of the reaction mixture was used for TLC analysis. TLC analysis was performed on Silica Gel 60 F254 (Merck), and produced sugars were visualized by spraying TLC with 5% H2SO4 in ethanol, followed by heating.

[2] = target: BpSBPMLG (Blautia producta, UniProt A0ABX6JB09); assay: Isothermal titration calorimetry of oligosaccharide binding to BpSBPMLG; set-up: species or system Blautia producta ATCC 27340
Protocol: The binding of β-(1,4), β-(1,3), and MLG-oligosaccharides to BpSBPMLG was measured at 25 °C in 10 mM sodium phosphate buffer (pH 7) using a MicroCal PEAQ-ITC (Malvern). The protein was extensively dialyzed against 10 mM sodium phosphate and all glycan ligands were also dissolved in the same buffer to minimize the heat of dilution. 13 injections of an oligosaccharide were titrated on BpSBPMLG present in the sample cell. Various preliminary titration setups were tried by changing amounts of protein (5–100 μM) and ligand (50 μM–10 mM) to get the best experimental conditions. Thermodynamic binding parameters [calculates binding affinity (Kd), stoichiometry (n), enthalpy (ΔH), Gibbs free energy change (ΔG), and entropy (ΔS)] were determined using the MicroCal PEAQ-ITC analysis software.

[3] = tested on: RaCDP; set-up: method as in PMID 23802549; settings: phosphorolytic reaction; cited from earlier work
[4] = tested on: Rt/CtCDP; set-up: method as in PMID 12153715; settings: phosphorolytic reaction; cited from earlier work
[5] = target: BpGH3-AR8MLG (Blautia producta, UniProt A0ABX6J8C8); assay type: biochemical, Blautia producta ATCC 27340; settings: for cleavage by BpGH3-AR8MLG (in words): TLC
Protocol: (§2) 150 μl of a freshly prepared 8:2 mixture of reagent A (50 mM sodium sulfite, 0.3 M 4-hydroxybenzhydrazide and 0.6 M HCl) and reagent B (50 mM trisodium citrate, 10 mM CaCl2, 0.5 M NaOH) were added to 50 μl sample. The reaction cocktail was boiled for 10 min at 100 °C. After the reaction was cooled down, the absorbance was recorded at 410 nm using the SpectraMax i3x multi-mode microplate reader. A calibration curve with different concentrations of glucose (0, 2, 4, 8, 16, 40, 80, 100, 200, 300, and 500 μM) was employed for each experiment to calculate the released amount of glucose (reducing end equivalents). The same samples were also used for control measurement, and the control value was subtracted from test reading prior to calculate kinetics parameters. In all cases, the Km, Vmax, and kcat were analyzed on GraphPad Prism. Three independent replicates were used for each test. TLC analyses were used for understanding the enzymatic degradation profiles of various oligosaccharides.

[6] = tested on: TaCDP; set-up: method as in PMID 28687766; settings: phosphorolytic reaction; cited from earlier work
[7] = target: T1, BpGH94MLG (Blautia producta, UniProt A0A7G5MNS2); assay: Phosphorolysis activity of BpGH94MLG on substrates (TLC); assay type: biochemical, Blautia producta ATCC 27340; settings: inorganic phosphate, 37 °C
T1 sequence (A0A7G5MNS2 1-804): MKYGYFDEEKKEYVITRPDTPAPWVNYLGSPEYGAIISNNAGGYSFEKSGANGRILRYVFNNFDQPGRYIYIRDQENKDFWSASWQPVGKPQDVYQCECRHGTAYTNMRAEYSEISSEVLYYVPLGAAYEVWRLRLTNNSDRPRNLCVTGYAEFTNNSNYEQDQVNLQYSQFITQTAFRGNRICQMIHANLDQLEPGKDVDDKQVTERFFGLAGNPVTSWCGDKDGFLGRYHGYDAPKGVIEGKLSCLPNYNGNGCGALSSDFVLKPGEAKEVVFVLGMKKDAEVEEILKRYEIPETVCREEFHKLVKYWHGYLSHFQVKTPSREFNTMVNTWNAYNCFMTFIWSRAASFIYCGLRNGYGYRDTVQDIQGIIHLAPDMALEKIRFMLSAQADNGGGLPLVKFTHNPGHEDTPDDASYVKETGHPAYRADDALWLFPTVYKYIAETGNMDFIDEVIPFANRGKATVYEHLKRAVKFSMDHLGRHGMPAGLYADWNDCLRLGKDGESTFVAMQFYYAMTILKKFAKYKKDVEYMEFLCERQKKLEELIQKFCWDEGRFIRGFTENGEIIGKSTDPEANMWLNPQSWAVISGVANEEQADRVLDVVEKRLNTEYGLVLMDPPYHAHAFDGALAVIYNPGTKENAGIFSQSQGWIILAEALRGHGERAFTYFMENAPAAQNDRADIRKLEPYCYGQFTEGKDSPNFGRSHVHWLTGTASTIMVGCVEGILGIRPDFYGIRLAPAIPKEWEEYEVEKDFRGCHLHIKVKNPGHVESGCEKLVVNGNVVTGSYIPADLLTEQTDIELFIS
Protocol: (§1) TLC was used for analyzing enzymatic actions. […] Kinetics parameters for BpGH94MLG were determined with G4G3G, G4G4G3G and cellotriose, following a p-hydroxybenzoic acid hydrazide (PAHBAH) reducing sugar assay ([69]).

[8] = target: T1, BpGH94MLG; assay: Phosphorolysis kinetics of BpGH94MLG (PAHBAH assay); assay type: biochemical, Blautia producta ATCC 27340
Protocol: as §1

[9] = target: T2, BpGH3-X62MLG (Blautia producta, UniProt A0ABX6JIM0); assay: Hydrolysis kinetics of BpGH3-X62MLG (PAHBAH assay, TLC); settings: for cleavage by BpGH3-X62MLG (in words): TLC
T2 sequence (A0ABX6JIM0 1-920): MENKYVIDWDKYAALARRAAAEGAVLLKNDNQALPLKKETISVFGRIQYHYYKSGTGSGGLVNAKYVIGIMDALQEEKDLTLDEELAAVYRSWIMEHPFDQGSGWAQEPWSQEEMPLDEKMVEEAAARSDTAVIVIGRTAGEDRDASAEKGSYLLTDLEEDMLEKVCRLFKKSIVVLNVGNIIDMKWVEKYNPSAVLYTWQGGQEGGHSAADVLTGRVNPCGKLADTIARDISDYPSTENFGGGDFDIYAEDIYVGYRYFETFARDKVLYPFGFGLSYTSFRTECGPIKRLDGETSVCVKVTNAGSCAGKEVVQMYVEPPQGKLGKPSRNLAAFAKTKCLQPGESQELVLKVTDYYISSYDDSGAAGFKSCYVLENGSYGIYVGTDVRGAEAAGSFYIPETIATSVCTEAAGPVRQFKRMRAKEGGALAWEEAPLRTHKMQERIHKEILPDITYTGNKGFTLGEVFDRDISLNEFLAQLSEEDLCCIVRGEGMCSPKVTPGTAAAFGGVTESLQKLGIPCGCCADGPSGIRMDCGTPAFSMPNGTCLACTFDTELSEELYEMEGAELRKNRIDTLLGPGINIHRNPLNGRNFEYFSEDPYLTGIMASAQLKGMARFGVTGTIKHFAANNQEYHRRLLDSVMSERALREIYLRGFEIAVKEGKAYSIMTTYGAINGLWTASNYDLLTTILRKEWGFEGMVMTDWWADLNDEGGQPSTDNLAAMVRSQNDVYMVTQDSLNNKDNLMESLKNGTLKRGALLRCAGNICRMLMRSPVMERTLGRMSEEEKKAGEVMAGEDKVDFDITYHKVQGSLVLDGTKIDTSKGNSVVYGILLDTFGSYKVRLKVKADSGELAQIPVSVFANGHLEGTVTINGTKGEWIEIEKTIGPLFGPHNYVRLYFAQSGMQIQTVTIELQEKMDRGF
Protocol: as §2

[10] = tested on: BpGH16MLG (BPGH16); assay: Michaelis-Menten kinetics of BpGH16MLG on β-glucans (DNS assay); assay type: biochemical, Blautia producta ATCC 27340; settings: native BPGH16; DNS assay; pH 5.7, 37 °C
Protocol: Then, reactions were terminated by boiling for 5 min. Enzymatic assays were determined with 3,5- dinitrosalicylic acid (DNS) assay ([85]). In brief, 0.05 g Na2SO3 and 1 g DNS were mixed in a 50 ml water-containing reagent bottle and stirred about 6 h using a magnetic stirrer. After that, 200 μl phenol was added and made up to 100 ml. A working solution of DNS was prepared by adding 50 μl glucose (20% (w/v) stock) in prepared 100 ml of reagent mixtures and immediately used for experiments without adding NaOH. 80 μl DNS reagent was added to the reaction mixtures and incubated at 100 °C for 10 min, followed by ice-cooling for 10 min. Consequently, recorded the developed color spectrophotometrically at 575 nm ([85]). A standard curve generated by different concentrations of maltose was used for determining released reducing sugars in each case.

[11] = tested on: B. producta ATCC 27340; set-up: method as in PMID 33043794; settings: cited from earlier work
[12] = target: β-mannooligosaccharide binding protein of Roseburia; set-up: method as in PMID 30796211; settings: cited from earlier work
[13] = tested on: B. producta ATCC 27340; assay: Growth of B. producta on β-glucans; assay type: cell-based, Blautia producta ATCC 27340; settings: minimal medium containing 1% glucan
Protocol: Active culture of B. producta and culture conditions were maintained following the recently reported procedure ([31]). Once B. producta grew, cells were centrifuged, and the obtained supernatant was decanted. A pellet of cells was then washed three times with phosphate-buffered saline (PBS) and washed cells were suspended in 2 ml PBS. […] The growth assessment experiments were performed for 96 h, following our recently established protocol ([82]).

[14] = ITC at 25 °C, 10 mM sodium phosphate pH 7.0
[15] = PAHBAH assay, 100 mM HEPES pH 6.5, 37 °C

Sequence of BpSBPMLG (A0ABX6JB09 entry or part of it): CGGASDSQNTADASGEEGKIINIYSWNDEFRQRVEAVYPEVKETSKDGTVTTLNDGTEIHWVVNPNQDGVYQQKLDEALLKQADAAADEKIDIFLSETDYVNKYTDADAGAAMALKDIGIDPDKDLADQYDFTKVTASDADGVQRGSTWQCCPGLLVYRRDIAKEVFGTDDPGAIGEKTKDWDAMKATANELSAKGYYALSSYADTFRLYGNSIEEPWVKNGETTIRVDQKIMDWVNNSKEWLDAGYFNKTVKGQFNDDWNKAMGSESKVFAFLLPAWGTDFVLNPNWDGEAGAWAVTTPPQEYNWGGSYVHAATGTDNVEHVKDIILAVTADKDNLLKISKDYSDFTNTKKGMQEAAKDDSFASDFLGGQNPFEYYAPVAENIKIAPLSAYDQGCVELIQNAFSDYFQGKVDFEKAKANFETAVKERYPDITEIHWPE
Sequence of BpGH3-AR8MLG (A0ABX6J8C8 entry or part of it): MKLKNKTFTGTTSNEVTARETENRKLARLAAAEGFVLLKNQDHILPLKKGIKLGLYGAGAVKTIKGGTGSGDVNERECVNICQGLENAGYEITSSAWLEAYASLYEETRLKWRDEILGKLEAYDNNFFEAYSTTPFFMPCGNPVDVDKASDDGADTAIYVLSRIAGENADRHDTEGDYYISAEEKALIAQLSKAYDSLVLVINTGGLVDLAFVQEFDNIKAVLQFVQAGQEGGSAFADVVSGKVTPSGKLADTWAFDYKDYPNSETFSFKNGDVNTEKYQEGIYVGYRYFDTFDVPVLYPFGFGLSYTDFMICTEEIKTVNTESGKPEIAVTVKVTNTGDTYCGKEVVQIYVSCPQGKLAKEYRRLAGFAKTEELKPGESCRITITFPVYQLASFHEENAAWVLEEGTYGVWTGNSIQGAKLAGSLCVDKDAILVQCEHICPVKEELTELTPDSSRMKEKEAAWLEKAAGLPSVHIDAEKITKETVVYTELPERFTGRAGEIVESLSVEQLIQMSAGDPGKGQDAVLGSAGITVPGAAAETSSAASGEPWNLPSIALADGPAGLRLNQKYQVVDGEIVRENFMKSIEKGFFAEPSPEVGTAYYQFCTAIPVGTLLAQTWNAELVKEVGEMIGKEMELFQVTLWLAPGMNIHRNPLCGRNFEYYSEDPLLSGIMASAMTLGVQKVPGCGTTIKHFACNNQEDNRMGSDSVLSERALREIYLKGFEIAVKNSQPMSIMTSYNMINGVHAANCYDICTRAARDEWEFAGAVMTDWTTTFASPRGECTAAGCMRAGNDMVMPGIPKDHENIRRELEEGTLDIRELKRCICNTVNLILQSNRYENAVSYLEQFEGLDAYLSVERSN

| Molecule | activity of BpGH16MLG on substrate (initial screening) [1] | Kd [2] [µM] | -TΔS^0 [2, 14] [kcal/mol] | n (binding stoichiometry) [2, 14] | ΔG^0 [2, 14] [kcal/mol] | ΔH [2, 14] [kcal/mol] | phosphorolysis activity of BpGH94MLG (in words) [7] | cleavage by BpGH3-X62MLG (in words) [9] | cleavage by BpGH3-AR8MLG (in words) [5] | Km [10] [mg/mL] | kcat [10] [s⁻¹] | also measured |
| --- | --- | --- | --- | --- | --- | --- | --- | --- | --- | --- | --- | --- |
| OC[C@H]1O[C@@H](O[C@H]2[C@H](O)[C@@H](O)[C@H](O[C@H]3[C@H](O)[C@@H](O)C(O)O[C@@H]3CO)O[C@@H]2CO)[C@H](O)[C@@H](O)[C@@H]1O (stereo partly drawn) [Cellotriose] | did not show activity | 1.74 | 0.8 | 0.77 ± 0.02 | -7.9 | -7.1 ± 0.31 | cleaved |  |  |  |  | Km [3]: 6060 µM; kcat [3]: 76.2 s⁻¹; Km [4]: 810 µM; kcat [4]: 4 s⁻¹; Km [5, 15]: 260 ± 30 µM; kcat [5, 15]: 15 ± 0.2 s⁻¹; Km [6]: 94 µM; kcat [6]: 0.28 s⁻¹ |
| OC[C@H]1O[C@@H](O[C@H]2[C@H](O)[C@@H](O)[C@H](O[C@H]3[C@H](O)[C@@H](CO)OC(O)[C@@H]3O)O[C@@H]2CO)[C@H](O)[C@@H](O)[C@@H]1O (stereo partly drawn) [G4G3G, Glc-β-1-4-Glc-β-1-3-Glc] |  | 1.01 | 4.4 | 0.42 ± 0.01 | -8.18 | -12.6 ± 0.32 | cleaved | cleaved | cleaved |  |  | Km lower compared to cellotriose [8]: about 1.85 fold |
| Laminarin | did cleave |  |  |  |  |  |  |  |  | 0.24 ± 0.03 | 43 ± 0.6 | growth of B. producta on the glucan [11]: does not support the growth |
| OC[C@H]1O[C@@H](O[C@H]2[C@H](O)[C@H](O)[C@H](O[C@H]3[C@H](O)[C@H](O)[C@H](O[C@H]4[C@H](O)[C@H](O)C(O)O[C@@H]4CO)O[C@@H]3CO)O[C@@H]2CO)[C@@H](O)[C@@H](O)[C@@H]1O (stereo partly drawn) [mannotetraose] |  |  |  |  |  |  |  |  |  |  |  | Kd [12]: 3.89 µM |
| OC[C@H]1O[C@@H](O[C@H]2[C@H](O)[C@@H](O)[C@H](O[C@H]3[C@H](O)[C@@H](O)[C@H](O[C@H]4[C@H](O)[C@@H](CO)OC(O)[C@@H]4O)O[C@@H]3CO)O[C@@H]2CO)[C@H](O)[C@@H](O)[C@@H]1O (stereo partly drawn) [G4G4G3G, Glc-β-1-4-Glc-β-1-4-Glc-β-1-3-Glc] |  | 5.14 | 5.7 | 0.77 and 0.77 ± 0.02 | -7.22 | -12.9 ± 0.85 |  | cleaved | cleaved |  |  | Km fold-change [8]: ~0.75 fold; kcat/Km higher compared to G4G3G [8]: 1.6 fold; kcat/Km higher compared to cellotriose [8]: 2.4 fold; Kd [2, 14]: 5.14 µM; kcat [9, 15]: 18 ± 0.3 s⁻¹ |
| Lichenan | did cleave |  |  |  |  |  |  |  |  | 0.13 ± 0.02 | 36 ± 0.5 | growth of B. producta on the glucan [13]: able to grow |
